35 compounds from paper doi:10.64898/2025.12.08.692997v2 (biorxiv, 2025) can be followed below.

Each structure is given as a SMILES string. Where a name gives a salt, the structure may show the parent alone. Read-outs that look alike come from different tables or passages of the source. Where only a bound is given, the exact number is not on record here.

Assay [1] has as its target T1, human EphB2-His ectodomain - human EphrinB2-Fc ectodomain (EphB2-EphrinB2 tetramer) (Homo sapiens, UniProt P29323+P52799). The experiment in a line: biochemical. To be noted: Octet IC50 data EB2-EphB2 (Absolute).
The target in assay [2] is T1, human EphB2-His ectodomain - human EphrinB2-Fc ectodomain (EphB2-EphrinB2 tetramer). The experiment in a line: biochemical. To be noted: Octet IC50 data EB2-EphB2 (Relative).
The target is the same in assay [3]. The experiment in a line: biochemical. To be noted: EphrinB2-EphB2 IC50 (Absolute, µM).
The target is the same in assay [4]. The assay is described as follows: biochemical. To be noted: EphrinB2-EphB2 IC50 (Relative, µM).
Assay [5] addresses rat EphB1-Fc ectodomain - mouse EphrinB2-His ectodomain (EphB1-EphrinB2) (Rattus norvegicus; Mus musculus, UniProt P09759+P52800). The assay is described as follows: biochemical.
Assay [6] concerns the target EphrinB2 of mouse pancreatic stellate cells stimulated with mouse EphB2-Fc-His (Mus musculus, UniProt P52800+P54763). The experiment in a line: % pEphrinB2 by IP and immunoblot. The format is cell-based.
The target in assay [7] is T1, human EphB2-His ectodomain - human EphrinB2-Fc ectodomain (EphB2-EphrinB2 tetramer). The experiment in a line: biochemical.
The target is the same in assay [8]. The assay is described as follows: biochemical. This is another data set of the same source.
Assay [9] has the same target. The assay is described as follows: biochemical. The source holds these as a separate data set.
Assay [10] has the same target. The experiment in a line: biochemical. The source holds these as a separate data set.
Assay [11] shares this target. The experiment in a line: biochemical. This is another data set of the same source.
Assay [12] has the same target. The experiment in a line: biochemical. This is another data set of the same source.
For assay [13] the target is unchanged. The experiment in a line: biochemical. This is another data set of the same source.
Assay [14] shares this target. The experiment in a line: biochemical. The source holds these as a separate data set.
Assay [15] has the same target. The experiment in a line: biochemical. This is another data set of the same source.
Assay [16] shares this target. The assay is described as follows: biochemical. This is another data set of the same source.
Assay [17] shares this target. The experiment in a line: biochemical. This is another data set of the same source.

T1 sequence (P52799 28-229): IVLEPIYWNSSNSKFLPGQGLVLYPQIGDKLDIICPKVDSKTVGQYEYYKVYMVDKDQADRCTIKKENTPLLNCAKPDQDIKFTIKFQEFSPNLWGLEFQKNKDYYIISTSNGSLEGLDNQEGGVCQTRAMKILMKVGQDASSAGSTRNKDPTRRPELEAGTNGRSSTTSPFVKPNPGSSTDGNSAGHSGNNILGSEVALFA
T1 sequence (P29323 19-543): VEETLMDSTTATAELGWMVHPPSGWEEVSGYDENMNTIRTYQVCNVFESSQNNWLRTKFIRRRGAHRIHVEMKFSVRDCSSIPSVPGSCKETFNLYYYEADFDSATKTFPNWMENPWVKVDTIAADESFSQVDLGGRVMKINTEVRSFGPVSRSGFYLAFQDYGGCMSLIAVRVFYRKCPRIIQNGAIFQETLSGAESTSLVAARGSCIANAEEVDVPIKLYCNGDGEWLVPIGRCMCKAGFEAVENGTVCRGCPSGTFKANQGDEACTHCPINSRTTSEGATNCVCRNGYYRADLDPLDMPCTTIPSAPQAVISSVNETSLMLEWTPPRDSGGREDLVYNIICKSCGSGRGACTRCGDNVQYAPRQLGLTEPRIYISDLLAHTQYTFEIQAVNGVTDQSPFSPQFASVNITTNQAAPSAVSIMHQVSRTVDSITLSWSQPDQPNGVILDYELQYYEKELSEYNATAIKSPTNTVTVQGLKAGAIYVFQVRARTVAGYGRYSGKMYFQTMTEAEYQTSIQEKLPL
Sequence of rat EphB1-Fc ectodomain - mouse EphrinB2-His ectodomain (EphB1-EphrinB2) (P52800 29-232): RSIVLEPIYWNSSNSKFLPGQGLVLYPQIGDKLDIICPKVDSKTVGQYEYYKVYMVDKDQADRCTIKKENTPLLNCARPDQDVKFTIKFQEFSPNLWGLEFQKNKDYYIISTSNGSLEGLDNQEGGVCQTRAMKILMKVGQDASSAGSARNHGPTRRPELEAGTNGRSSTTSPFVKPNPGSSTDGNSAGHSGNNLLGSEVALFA
Sequence of rat EphB1-Fc ectodomain - mouse EphrinB2-His ectodomain (EphB1-EphrinB2) (P09759 18-538): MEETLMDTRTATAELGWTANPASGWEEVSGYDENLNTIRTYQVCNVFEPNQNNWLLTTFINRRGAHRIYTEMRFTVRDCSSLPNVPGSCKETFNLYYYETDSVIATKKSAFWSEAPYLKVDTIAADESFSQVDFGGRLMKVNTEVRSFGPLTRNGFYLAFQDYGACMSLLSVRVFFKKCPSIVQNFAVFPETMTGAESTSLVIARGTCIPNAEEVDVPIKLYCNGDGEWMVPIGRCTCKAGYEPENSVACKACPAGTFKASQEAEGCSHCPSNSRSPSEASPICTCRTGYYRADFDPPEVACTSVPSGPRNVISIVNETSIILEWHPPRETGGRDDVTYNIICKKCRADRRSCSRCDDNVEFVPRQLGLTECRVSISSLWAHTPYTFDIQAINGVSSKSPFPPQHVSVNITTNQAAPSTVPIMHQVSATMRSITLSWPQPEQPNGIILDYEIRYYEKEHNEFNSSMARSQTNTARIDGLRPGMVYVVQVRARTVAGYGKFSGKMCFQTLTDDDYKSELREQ
Sequence of EphrinB2 of mouse pancreatic stellate cells stimulated with mouse EphB2-Fc-His (P52800 29-336): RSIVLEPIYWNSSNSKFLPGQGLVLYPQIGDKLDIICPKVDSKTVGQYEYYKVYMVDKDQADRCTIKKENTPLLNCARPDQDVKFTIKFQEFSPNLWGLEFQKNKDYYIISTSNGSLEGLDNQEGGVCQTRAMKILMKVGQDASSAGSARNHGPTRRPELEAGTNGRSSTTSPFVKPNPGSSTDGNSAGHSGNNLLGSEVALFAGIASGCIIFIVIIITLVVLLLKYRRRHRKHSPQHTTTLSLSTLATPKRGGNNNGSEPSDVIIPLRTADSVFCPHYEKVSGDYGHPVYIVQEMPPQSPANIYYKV
Sequence of EphrinB2 of mouse pancreatic stellate cells stimulated with mouse EphB2-Fc-His (P54763 19-540): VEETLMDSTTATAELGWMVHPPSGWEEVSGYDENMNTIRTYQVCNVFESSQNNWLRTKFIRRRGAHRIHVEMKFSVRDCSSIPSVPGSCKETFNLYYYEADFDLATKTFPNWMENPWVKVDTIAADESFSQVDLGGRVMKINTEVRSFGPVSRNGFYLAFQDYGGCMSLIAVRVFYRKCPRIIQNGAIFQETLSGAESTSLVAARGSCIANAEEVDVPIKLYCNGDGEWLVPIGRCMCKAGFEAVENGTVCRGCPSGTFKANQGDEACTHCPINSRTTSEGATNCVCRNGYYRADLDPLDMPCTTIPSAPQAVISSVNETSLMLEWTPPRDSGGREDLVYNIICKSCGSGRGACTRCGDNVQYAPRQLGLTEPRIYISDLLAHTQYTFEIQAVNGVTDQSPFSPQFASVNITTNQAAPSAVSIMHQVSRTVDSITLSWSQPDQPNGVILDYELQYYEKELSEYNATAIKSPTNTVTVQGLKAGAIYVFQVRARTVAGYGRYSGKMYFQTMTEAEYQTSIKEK

Regarding `Clc1cc2c(c3ncccc13)OCN(C1CCCC1)C2` [1b, 6-chloro-3-cyclopentyl-3,4-dihydro-2H-[1,3]oxazino[5,6-h]quinoline], the IC50 in assay [1] is 1380 nM; in [2], 1200 nM.
`Clc1cc2c(c3ncccc13)OCN(C1CCCC1)C2` [1c, 6-chloro-3-cyclopentyl-3,4-dihydro-2H-[1,3]oxazino[5,6-h]quinoline]: the figures for the IC50 in assay [1] and in [2] were 850 nM and 760 nM, respectively.
Take `Clc1cc2c(c3ncccc13)OCN(CC1CCCO1)C2` (centres unmarked) [4a, 6-chloro-3-((tetrahydrofuran-2-yl)methyl)-3,4-dihydro-2H-[1,3]oxazino[5,6-h]quinoline]: the figures for the IC50 in assay [1] and in assay [2] were 810 nM and 720 nM, respectively.
As for `Oc1ccc(CN2CCOCC2)c2cccnc12` [A19, 5-(morpholinomethyl)quinolin-8-ol], the values for the IC50 in [3], in [4] and in [5] were greater than 1.6 µM, greater than 1.6 µM and greater than 100000 nM, respectively.
The compound `O=C(O)CN(CCN(CC(=O)O)CC(=O)O)CC(=O)O` [EDTA] had an IC50 in [6] of 1100 nM.
For `O=S1(=O)CCN(Cc2ccc(O)c3ncccc23)CC1` [QTM . 2 HCl, 4-((8-hydroxyquinolin-1-ium-5-yl)methyl)thiomorpholin-4-ium 1,1-dioxide chloride], the IC50 in assay [3] is greater than 1.6 µM; in [4] it was 0.81 µM; in assay [5] it was greater than 100000 nM.
Compound `Cc1ccnc(NC(c2cccc([N+](=O)[O-])c2)c2ccc3cccnc3c2O)c1` (centres unmarked) [SW039339] displayed an IC50 in assay [7] greater than 3200 nM.
Compound `CC(=O)Oc1ccccc1C(=O)O` [compound 1, Aspirin] returned an IC50 in assay [8] greater than 100000 nM.
For the compound `Clc1cc2c(c3ncccc13)OCN(Cc1cccnc1)C2` [compound 2, 6-chloro-3-(pyridin-3-ylmethyl)-3,4-dihydro-2H-[1,3]oxazino[5,6-h]quinoline], the IC50 in [1] was found to be 850 nM; in assay [2], 740 nM.
Regarding `O=C(Oc1cccc2cccnc12)c1ccc(F)cc1` [compound 2, 8-quinolinyl 4-fluorobenzoate], the figures for the IC50 in assay [9] and in [10] were greater than 100000 nM and 100000 nM, respectively.
Regarding `CC(=O)Nc1ccc(O)cc1` [compound 2, Acetaminophen], in assay [8], the IC50 is greater than 100000 nM.
On to `O=C(O)CN(CCOCCOCCN(CC(=O)O)CC(=O)O)CC(=O)O` [compound 2, EGTA sodium salt], for which the IC50 in assay [11] and in assay [12] was greater than 3200 nM throughout.
Take `CC(C)(C)N1COc2c(cc(Cl)c3cccnc23)C1` [compound 3, 3-(tert-butyl)-6-chloro-3,4-dihydro-2H-[1,3]oxazino[5,6-h]quinoline]: the IC50 in assay [1] amounted to 1950 nM; in [2] it was 1780 nM.
In the case of `Oc1ccc(Cl)c2cccnc12` [compound 3, Cloxiquine], the IC50 in [11] is greater than 3200 nM; in assay [13], roughly 3200 nM.
In the case of `O=C(O)c1ccc(-n2nc(-c3ccccc3O)nc2-c2ccccc2O)cc1` [compound 3, Deferasirox], the IC50 in assay [14] was greater than 100000 nM.
In the case of `CC(C)Cc1ccc(C(C)C(=O)O)cc1` (centres unmarked) [compound 3, Ibuprofen], the IC50 in [8] was greater than 100000 nM.
On to `CCN(CC)CC(=O)Nc1c(C)cccc1C` [compound 4, Lidocaine hydrochloride monohydrate], for which the half-maximal inhibitory concentration (IC50) in assay [8] was greater than 100000 nM.
For the compound `CC1(C)CC(N2COc3c(cc(Cl)c4cccnc34)C2)CC(C)(C)N1` [compound 5, 6-chloro-3-(2,2,6,6-tetramethylpiperidin-4-yl)-3,4-dihydro-2H-[1,3]oxazino[5,6-h]quinoline], the IC50 in assay [1] was determined as 1740 nM; in assay [2], 1150 nM.
In the case of `CNC[C@H](O)c1cccc(O)c1` [compound 5, Phenylephrine hydrochloride], in assay [8], the IC50 is greater than 100000 nM.
In assay [8], `CN(C)CCC(c1ccc(Cl)cc1)c1ccccn1` (centres unmarked) [compound 6, Chloropheniramine maleate] came in with an IC50 greater than 100000 nM.
Regarding `CCc1ccc(CCOc2ccc(CC3SC(=O)NC3=O)cc2)nc1` (centres unmarked) [compound 7, Pioglitazone hydrochloride], the IC50 in [8] is greater than 100000 nM.
For `CCCCN1COc2c(cc(Cl)c3cccnc23)C1` [compound 8, 3-butyl-6-chloro-3,4-dihydro-2H-[1,3]oxazino[5,6-h]quinoline], the values for the IC50 in [1] and in [2] were 1150 nM and 1050 nM, respectively.
As to `Cc1ncc(CO)c(CO)c1O` [compound 8, Pyridoxine hydrochloride], the IC50 in [8] was greater than 100000 nM.
Consider `O=C(O)[C@@H](S)[C@@H](S)C(=O)O` [compound 8, Succimer], for which the IC50 in assay [15] and in assay [16] was roughly 50000 nM throughout.
In the case of `COCCN(CCCCc1ccc2c(n1)NCCC2)CC[C@H](Nc1ncnc2ccccc12)C(=O)O` [compound 9, Bexotegrast], in assay [14], the IC50 was greater than 100000 nM.
In [8], `O=C(O)Cc1ccccc1Nc1c(Cl)cccc1Cl` [compound 9, Diclofenac sodium salt] registered an IC50 greater than 100000 nM.
Take `CC(c1ccccc1)N1COc2c(cc(Cl)c3cccnc23)C1` (centres unmarked) [compound 10, 6-chloro-3-(1-phenylethyl)-3,4-dihydro-2H-[1,3]oxazino[5,6-h]quinoline]: the IC50 worked out at 890 nM in [1] and 740 nM in assay [2].
In assay [8], `N[C@@H](Cc1ccc(O)cc1)C(=O)O` [compound 10, L-Tyrosine] displayed an IC50 greater than 100000 nM.
`CN(C)C(=O)Oc1c(I)cc(Cl)c2cccnc12` [compound 11, 5-chloro-7-iodo-8-quinolinyl dimethylcarbamate] came in with an IC50 in [17] greater than 100000 nM.
Consider `Clc1cc2c(c3ncccc13)OCN(CCc1ccccc1)C2` [compound 11, 6-chloro-3-phenethyl-3,4-dihydro-2H-[1,3]oxazino[5,6-h]quinoline], for which the IC50 in assay [1] amounted to 1150 nM; in assay [2], 1070 nM.
In the case of `Clc1cc2c(c3ncccc13)OCN(CCC1=CCCCC1)C2` [compound 12, 6-chloro-3-(2-(cyclohex-1-en-1-yl)ethyl)-3,4-dihydro-2H-[1,3]oxazino[5,6-h]quinoline], the values for the IC50 in assay [1] and in assay [2] were 660 nM and 590 nM, respectively.
The compound `Nc1nc2ncc(CNc3ccc(C(=O)N[C@@H](CCC(=O)O)C(=O)O)cc3)nc2c(=O)[nH]1` [compound 12, Folic acid] came in with an IC50 in assay [8] greater than 100000 nM.
`Cc1ccc(N(C)C(=O)Oc2c(Br)cc(Br)c3ccc(C)nc23)cc1` [compound 13, 5,7-dibromo-2-methylquinolin-8-yl methyl(4-methylphenyl)carbamate] yielded an IC50 in [17] greater than 100000 nM.
The same measure, in the same setting: then `O=C(Oc1c(Cl)cc(Cl)c2cccnc12)N1CCOCC1` [compound 14, 5,7-dichloro-8-quinolinyl 4-morpholinecarboxylate], with greater than 100000 nM; and `O=C(Oc1c(Br)cc(Cl)c2cccnc12)N1CCOCC1` [compound 15, 7-bromo-5-chloro-8-quinolinyl 4-morpholinecarboxylate], with greater than 100000 nM.
